The text below walks through data of PMC7840129, “Structural basis for heme-dependent NCoR binding to the transcriptional repressor REV-ERBβ” (Science Advances, 2021).

What all share (assay type): binding, human
For test [1], the system named is heme-bound 15N-labeled REV-ERBβ LBD. As to the kind of experiment: NMR structural footprinting, 2D [1H,15N]-TROSY-HSQC titration, heme-bound LBD. The conditions noted are these: 298 K; for NMR exchange regime on peptide titration: heme-bound LBD (200 μM, 1.25 equivalents heme), 20 mM Hepes pH 7.4, 50 mM NaCl, 0.5 mM EDTA; for NMR CSP and line broadening, binding surface: heme-bound LBD, 2× ID1 or ID2 peptide. From the text: To support our ITC results, we performed solution NMR structural footprinting by titrating NCoR ID1 or ID2 peptide into ^15N-labeled REV-ERBβ LBD. For this analysis, we used backbone NMR chemical shift assignments that we previously reported for apo LBD ([18]) and collected three-dimensional (3D) NMR data to obtain backbone NMR chemical shift assignments for heme-bound LBD (fig. S4). […] To qualitatively assess the strength of each interaction, we analyzed the exchange regime of NMR chemical shift changes on the NMR time scale.
Next, we used differential NMR analysis to structurally map the ID1 and ID2 peptide binding surfaces in the heme-bound LBD. In other NRs, the AF-2 coregulator interaction surface is formed by the physical interaction of helix 12 with a surface formed by helices 3 to 5 within the LBD. REV-ERBβ lacks helix 12 but contains the surface formed by helices 3 to 5 including a conserved lysine residue (K421) on helix 3 important for corepressor interaction ([19]). We quantitatively analyzed chemical shift perturbations (CSPs) and line broadening caused by peptide binding in 2D [^1H,^15N]-TROSY-HSQC NMR spectra (Fig. 1D and fig. S6). […] We also observed binding effects on helix 7, which may be attributed to a peptide-induced allosteric conformational change due to interactions between the heme propionate group and G480 on helix 7 (fig. S7).
For generation of ^15N-labeled REV-ERBβ LBD, protein was expressed in BL21(DE3) E. coli cells using M9 minimal media supplemented with ^15NH4Cl (Cambridge Isotope Laboratories) induced at an optical density at 600 nm (OD600) of 0.6 with 0.5 mM isopropyl-β-D-thiogalactopyranoside (IPTG) for 16 hours at 18°C. For generation of ^2H-,^15N-,^13C-labeled REV-ERBβ LBD (~70% deuteration) for peak assignment experiments, cultures were first grown at 37°C in 1 liter of LB media until an OD600 of 0.6 before the cells were pelleted and resuspended in 0.5 liters of M9 minimal media prepared in D2O supplemented with ^13C-D-glucose and ^15NH4Cl (Cambridge Isotope Laboratories). After 1-hour recovery at 37°C, expression was induced with 0.5 mM IPTG for 16 hour at 37°C before harvesting by centrifugation. […]
(§1) To generate heme-bound protein, 1.25 molar equivalents of heme prepared in 0.2 M NaOH as a 50 mM stock were added to ^15N-labeled REV-ERBβ LBD (200 μM) or ^2H-,^15N-,^13C-labeled REV-ERBβ LBD (1 mM) in Hepes buffer [20 mM Hepes (pH 7.4), 50 mM NaCl, and 0.5 mM EDTA]. NMR data were collected at 298 K on a Bruker 700-MHz NMR system equipped with a QCI CryoProbe, processed using NMRFx ([40]), and analyzed using NMRViewJ ([41]). […] 2D [^1H,^15N]-TROSY-HSQC data were collected for heme-bound ^15N-labeled REV-ERBβ LBD at 298 K with addition of NCoR ID1 or ID2 peptides prepared as 50 mM stock in DMSO and analyzed in NMRViewJ. […]

Test [2] deals with REV-ERBβ LBD cobound to heme. Put plainly: Crystal structures of REV-ERBβ LBD cobound to heme and NCoR ID peptides. The conditions noted are these: ID1 PDB 6WMQ, ID2 PDB 6WMS. How it is done:
After overnight incubation at 4°C with peptide, REV-ERBβ LBD cobound to heme and peptide was buffer-exchanged into Hepes gel filtration buffer to remove unbound and concentrated to 15 mg/ml (ID2-bound) or 5 mg/ml (ID1-bound). Buffer-exchanged proteins were screened for conditions that produced crystals using the NR LBD (Molecular Dimensions), Structure (Molecular Dimensions), Index (Hampton Research), and PEG/Ion (Hampton Research) kits and sitting drop method (1-μl reservoir solution added to 1-μl drop of protein solution) at 22°C. REV-ERBβ LBD crystals cobound to heme and NCoR ID2 grew in 0.2 M Mg formate dihydrate and 20% (w/v) PEG 3350 (PEG/Ion), and REV-ERBβ LBD crystals cobound to heme and NCoR ID1 grew in 2.0 M ammonium sulfate, 0.1 M Na Hepes (pH 7.5), and 2% PEG 400 (Structure). Crystals in their respective condition were supplemented with 10% glycerol and flash-cooled in liquid nitrogen. X-ray diffraction data were collected at the Advanced Light Source synchrotron (Lawrence Berkeley National Laboratory) in 180 images with a 1° rotation per image. Data were processed, indexed, and scaled using Mosflm and Scala in CCP4 (Collaborative Computational Project No. 4) ([32], [33]). […]
Structures were aligned, and RMSD values were calculated in PyMOL using the “align” command with cycles set to 0 (no outliers were removed). […]

The test system of test [3] is apo 15N-labeled REV-ERBβ LBD. As to the kind of experiment: NMR structural footprinting, 2D [1H,15N]-TROSY-HSQC titration, apo LBD. As to conditions: apo LBD (200 μM), 298 K, 20 mM Hepes pH 7.4, 50 mM NaCl, 0.5 mM EDTA.
Excerpt: To support our ITC results, we performed solution NMR structural footprinting by titrating NCoR ID1 or ID2 peptide into ^15N-labeled REV-ERBβ LBD. For this analysis, we used backbone NMR chemical shift assignments that we previously reported for apo LBD ([18]) and collected three-dimensional (3D) NMR data to obtain backbone NMR chemical shift assignments for heme-bound LBD (fig. S4). […] To qualitatively assess the strength of each interaction, we analyzed the exchange regime of NMR chemical shift changes on the NMR time scale. […]
as §1

As to `CC[C@H](C)[C@H](NC(=O)[C@H](CC(=O)O)NC(=O)[C@H](CCC(=O)O)NC(=O)[C@H](CC(C)C)NC(=O)CNC(=O)[C@H](CC(C)C)NC(=O)[C@H](CC(N)=O)NC(=O)[C@H](CO)NC(=O)[C@H](C)NC(=O)[C@@H]1CCCN1C(=O)[C@H](CC(=O)O)NC(C)=O)C(=O)N[C@H](C(=O)N[C@@H](CCCNC(=N)N)C(=O)N[C@@H](CCCCN)C(=O)N[C@@H](C)C(=O)N[C@@H](CC(C)C)C(=O)N[C@@H](CCSC)C(=O)NCC(=O)N[C@@H](CO)C(=O)N[C@@H](Cc1ccccc1)C(=O)N[C@@H](CC(=O)O)C(=O)N[C@@H](CC(=O)O)C(=O)N[C@@H](CCCCN)C(N)=O)[C@@H](C)CC` [NCoR ID2 peptide], in test [1], the “NMR exchange regime on peptide titration” value is “mixture of peak movements in slow and intermediate exchange”; the “NMR CSP and line broadening, binding surface” value was “AF-2 surface residues including K421 showed the largest CSP changes and line broadening”. For the same compound, in test [2], the “interaction of bound ID peptide in crystal structure (in words)” value was “formed electrostatic interactions with the conserved charge clamp residue K421 on helix 3”. The “NMR exchange regime on peptide titration” value in test [3] is on record as “fast”.

Turning to “Ac-RTHRLITLADHICQIITQDFARN-NH2 [NCoR ID1 peptide]”, in test [1], the “NMR exchange regime on peptide titration” value was “mixture of peak movements in slow and intermediate exchange”; the “NMR CSP and line broadening, binding surface” value is “AF-2 surface residues including K421 showed the largest CSP changes and line broadening”. Also, the “interaction of bound ID peptide in crystal structure (in words)” value in test [2] is given as “formed electrostatic interactions with the conserved charge clamp residue K421 on helix 3”. For the same compound, the “NMR exchange regime on peptide titration” value in test [3] was “slow”.
